Source: publication doi:10.1101/2025.01.28.635346v1 (bioRxiv, 2025)
Bridge positions count the residues as written; N and C are the ends. Side chains are listed from the residue outwards. Peptide text beside a SMILES is read from it. * marks the point of attachment. Butanoyl(4-(4-I-phenyl)) = O=C(CCCc1ccc(I)cc1)*; PEG2 = NCCOCCOCCC(=O)O

What was measured:
[1] = molecular target: KvLQT1/minK (Homo sapiens, UniProt P15382+P51787); test: Safetyscan47 Ion Channel, Opener; type: cell-based; conditions: for Emax: read-out: Max Response
KvLQT1/minK, sequence (P51787 whole entry): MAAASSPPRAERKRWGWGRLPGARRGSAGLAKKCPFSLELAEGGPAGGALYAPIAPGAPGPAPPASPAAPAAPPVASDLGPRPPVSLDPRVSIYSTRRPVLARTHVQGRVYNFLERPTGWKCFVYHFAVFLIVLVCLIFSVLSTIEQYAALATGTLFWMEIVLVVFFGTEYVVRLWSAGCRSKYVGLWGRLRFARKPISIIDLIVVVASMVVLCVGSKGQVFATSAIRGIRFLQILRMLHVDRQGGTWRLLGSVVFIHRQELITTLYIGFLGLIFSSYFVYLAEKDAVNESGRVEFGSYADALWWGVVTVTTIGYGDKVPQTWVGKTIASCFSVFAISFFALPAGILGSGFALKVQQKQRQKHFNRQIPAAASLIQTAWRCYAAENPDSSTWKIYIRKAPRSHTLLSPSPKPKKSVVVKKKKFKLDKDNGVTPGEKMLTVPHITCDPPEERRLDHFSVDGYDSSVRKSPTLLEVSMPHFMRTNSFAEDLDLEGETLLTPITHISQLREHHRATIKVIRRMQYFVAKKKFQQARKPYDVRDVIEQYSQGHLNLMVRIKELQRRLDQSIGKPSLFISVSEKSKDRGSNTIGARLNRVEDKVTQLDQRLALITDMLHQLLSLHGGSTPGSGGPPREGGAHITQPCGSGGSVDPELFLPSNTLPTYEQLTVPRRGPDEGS

[2] = molecular target: ADRB2 (Homo sapiens, UniProt P07550); test: Safetyscan47 GPCR cAMP, Antagonist; type: cell-based; conditions: for Emax: read-out: Max Response
ADRB2, sequence (P07550 whole entry): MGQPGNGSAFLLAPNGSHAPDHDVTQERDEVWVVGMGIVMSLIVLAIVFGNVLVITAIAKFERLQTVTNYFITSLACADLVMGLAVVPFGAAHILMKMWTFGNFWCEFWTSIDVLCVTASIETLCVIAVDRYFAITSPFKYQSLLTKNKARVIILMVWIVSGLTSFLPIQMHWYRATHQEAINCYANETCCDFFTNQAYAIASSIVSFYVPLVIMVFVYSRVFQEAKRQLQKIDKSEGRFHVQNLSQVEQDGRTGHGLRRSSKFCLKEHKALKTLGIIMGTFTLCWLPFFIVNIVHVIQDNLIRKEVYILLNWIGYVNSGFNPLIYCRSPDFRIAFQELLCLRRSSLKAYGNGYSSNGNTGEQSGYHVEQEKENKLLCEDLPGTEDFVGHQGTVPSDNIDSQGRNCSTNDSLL

[3] = molecular target: GABAA (Homo sapiens, UniProt P14867+P18507+P47870); test: Safetyscan47 Ion Channel, Blocker; type: cell-based; conditions: for Emax: read-out: Max Response
GABAA, sequence (P14867 28-456): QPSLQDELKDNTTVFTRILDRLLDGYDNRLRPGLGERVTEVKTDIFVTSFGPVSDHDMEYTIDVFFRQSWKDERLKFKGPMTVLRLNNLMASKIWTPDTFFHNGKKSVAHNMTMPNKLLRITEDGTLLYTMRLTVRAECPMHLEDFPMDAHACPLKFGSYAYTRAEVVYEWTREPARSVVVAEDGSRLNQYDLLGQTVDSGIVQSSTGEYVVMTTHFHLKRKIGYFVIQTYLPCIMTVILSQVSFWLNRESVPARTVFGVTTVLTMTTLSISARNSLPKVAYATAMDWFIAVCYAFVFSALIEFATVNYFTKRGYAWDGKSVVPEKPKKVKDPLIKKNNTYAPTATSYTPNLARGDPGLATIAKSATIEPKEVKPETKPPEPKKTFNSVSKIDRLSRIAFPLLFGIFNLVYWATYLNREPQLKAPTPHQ
GABAA, sequence (P47870 26-512): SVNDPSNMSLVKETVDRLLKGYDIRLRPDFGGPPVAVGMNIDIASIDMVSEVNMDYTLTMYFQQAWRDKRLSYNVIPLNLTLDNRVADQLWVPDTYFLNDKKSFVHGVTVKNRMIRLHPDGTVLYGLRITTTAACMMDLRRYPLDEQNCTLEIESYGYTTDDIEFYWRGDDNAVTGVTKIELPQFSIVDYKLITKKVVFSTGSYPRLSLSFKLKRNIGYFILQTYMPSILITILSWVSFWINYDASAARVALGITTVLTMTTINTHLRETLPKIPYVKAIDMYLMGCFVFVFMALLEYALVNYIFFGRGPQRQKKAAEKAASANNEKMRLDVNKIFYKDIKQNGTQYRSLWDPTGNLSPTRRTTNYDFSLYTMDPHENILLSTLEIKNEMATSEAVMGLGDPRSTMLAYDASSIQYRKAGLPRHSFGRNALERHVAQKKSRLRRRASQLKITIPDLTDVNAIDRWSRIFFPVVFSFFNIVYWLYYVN
GABAA, sequence (P18507 40-475): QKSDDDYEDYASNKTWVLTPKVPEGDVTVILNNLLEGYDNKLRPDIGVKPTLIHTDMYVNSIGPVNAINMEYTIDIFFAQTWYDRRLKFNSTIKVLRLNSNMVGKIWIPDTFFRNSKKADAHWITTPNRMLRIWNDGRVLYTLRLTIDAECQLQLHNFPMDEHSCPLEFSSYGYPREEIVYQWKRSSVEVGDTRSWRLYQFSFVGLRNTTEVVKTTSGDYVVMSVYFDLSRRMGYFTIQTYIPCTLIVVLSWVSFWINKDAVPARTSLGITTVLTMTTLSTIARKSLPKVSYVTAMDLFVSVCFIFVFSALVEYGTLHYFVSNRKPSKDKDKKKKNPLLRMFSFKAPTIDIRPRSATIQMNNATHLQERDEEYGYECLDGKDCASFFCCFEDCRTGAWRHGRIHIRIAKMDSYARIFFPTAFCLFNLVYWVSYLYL

[4] = molecular target: HTR2A (Homo sapiens, UniProt P28223); test: Safetyscan47 GPCR Calcium Flux, Antagonist; type: cell-based; conditions: for Emax: read-out: Max Response
HTR2A, sequence (P28223 whole entry): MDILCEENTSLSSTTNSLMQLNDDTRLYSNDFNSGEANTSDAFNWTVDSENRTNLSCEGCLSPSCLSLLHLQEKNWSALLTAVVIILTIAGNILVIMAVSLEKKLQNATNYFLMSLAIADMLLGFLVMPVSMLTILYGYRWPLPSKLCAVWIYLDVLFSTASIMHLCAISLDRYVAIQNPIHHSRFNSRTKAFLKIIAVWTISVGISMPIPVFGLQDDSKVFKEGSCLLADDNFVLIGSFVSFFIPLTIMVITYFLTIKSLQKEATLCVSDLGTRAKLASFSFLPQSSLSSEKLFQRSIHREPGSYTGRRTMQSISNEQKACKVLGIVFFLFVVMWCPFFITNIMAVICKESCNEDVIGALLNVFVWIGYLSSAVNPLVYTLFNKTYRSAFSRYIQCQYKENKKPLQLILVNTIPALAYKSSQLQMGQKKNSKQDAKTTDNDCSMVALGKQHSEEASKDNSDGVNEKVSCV

[5] = molecular target: DRD1 (Homo sapiens, UniProt P21728); test: Safetyscan47 GPCR cAMP, Antagonist; type: cell-based; conditions: for Emax: read-out: Max Response
DRD1, sequence (P21728 whole entry): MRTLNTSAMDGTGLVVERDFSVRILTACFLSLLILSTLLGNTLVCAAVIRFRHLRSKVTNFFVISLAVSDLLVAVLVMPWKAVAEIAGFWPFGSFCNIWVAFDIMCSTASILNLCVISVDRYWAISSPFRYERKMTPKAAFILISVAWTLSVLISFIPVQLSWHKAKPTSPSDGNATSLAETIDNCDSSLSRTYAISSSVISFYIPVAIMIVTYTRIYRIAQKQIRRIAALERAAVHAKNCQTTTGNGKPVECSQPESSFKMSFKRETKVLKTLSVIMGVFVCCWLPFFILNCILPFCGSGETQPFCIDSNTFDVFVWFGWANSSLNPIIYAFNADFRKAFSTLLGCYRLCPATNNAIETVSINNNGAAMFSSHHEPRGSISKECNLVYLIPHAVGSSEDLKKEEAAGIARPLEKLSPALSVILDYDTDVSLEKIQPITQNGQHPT

[6] = Solubility and aggregation; type: physicochemical
[7] = Pharmacokinetics in female Sprague-Dawley rats; type: in vivo, rat
[8] = Tissue distribution in female Balb/c mice; type: in vivo, mouse; conditions: for Brain concentration / Colon concentration / Kidneys concentration / Liver concentration / Mammary concentration / Ovaries concentration / Plasma Concentration / Lungs concentration: Balb/c mice
[9] = female, Sprague-Dawley, rat, plasma, 30 mg/kg
[10] = female, Sprague-Dawley, rat, plasma, iv, 30 mg/kg
[11] = 3 hr, Mouse 1 (individual animal)
[12] = 3 hr, Mouse 2 (individual animal)
[13] = 3 hr, Mouse 3 (individual animal)
[14] = 8 hr, Mouse 1 (individual animal)
[15] = 8 hr, Mouse 2 (individual animal)
[16] = 8 hr, Mouse 3 (individual animal)
[17] = female, Balb/c, mouse, brain, ip, 30 mg/kg
[18] = female, Balb/c, mouse, breast tissue including mammary gland, ip, 30 mg/kg
[19] = female, Balb/c, mouse, colon, ip, 30 mg/kg
[20] = female, Balb/c, mouse, kidney, ip, 30 mg/kg
[21] = female, Balb/c, mouse, kidneys, ip, 30 mg/kg
[22] = female, Balb/c, mouse, liver, ip, 30 mg/kg
[23] = female, Balb/c, mouse, lungs, ip, 30 mg/kg
[24] = female, Balb/c, mouse, ovaries, ip, 30 mg/kg
[25] = female, Balb/c, mouse, plasma, ip, 30 mg/kg

## CC[C@H](C)[C@H](NC(=O)[C@H](CC(C)C)NC(=O)[C@H](CC(=O)O)NC(=O)CNC(=O)[C@H](CCCNC(=N)N)NC(=O)[C@@H](NC(=O)[C@H](Cc1ccccc1)NC(=O)[C@H](Cc1ccc(O)cc1)NC(=O)[C@@H]1CCC(=O)NCC(=O)NCC(=O)N[C@@H](CCCNC(=N)N)C(=O)NCC(=O)N[C@@H](Cc2c[nH]cn2)C(=O)N[C@@H](C(C)C)C(=O)N2CCC[C@H]2C(=O)N1)C(C)C)C(=O)N[C@@H](CO)C(=O)N[C@@H](Cc1ccccc1)C(=O)N[C@@H](Cc1ccc(O)cc1)C(=O)N[C@@H](CCCCN)C(=O)O [lassotide 36] (GGRGHVPEYFVRGDLISFYK-OH; lactam N-8)
[1]
  EC50: > 45 µM
  Emax: 0%
[2]
  IC50: > 45 µM
  Emax: 8.93%
[3]
  IC50: > 45 µM
  Emax: 0%
[4]
  IC50: > 45 µM
  Emax: 5.08%
[5]
  IC50: > 45 µM
  Emax: 11.1%

## CC[C@H](C)[C@H](NC(=O)[C@H](CC(C)C)NC(=O)[C@H](CC(=O)O)NC(=O)CNC(=O)[C@H](CCCNC(=N)N)NC(=O)[C@@H](NC(=O)[C@H](Cc1ccccc1)NC(=O)[C@H](Cc1ccc(O)cc1)NC(=O)[C@@H]1CCC(=O)NCC(=O)NCC(=O)N[C@@H](CCCNC(=N)N)C(=O)NCC(=O)N[C@@H](Cc2c[nH]cn2)C(=O)N[C@@H](C(C)C)C(=O)N2CCC[C@H]2C(=O)N1)C(C)C)C(=O)N[C@@H](CO)C(=O)N[C@@H](Cc1ccccc1)C(=O)N[C@@H](Cc1ccc(O)cc1)C(=O)N[C@@H](CCCCNC(=O)CCOCCOCCNC(=O)CCCc1ccc(I)cc1)C(=O)O [lassotide 47] (GGRGHVPEYFVRGDLISFYK([PEG2-Butanoyl(4-(4-I-phenyl))])-OH; lactam N-8)
[1]
  EC50: > 45 µM
  Emax: 0%
[2]
  IC50: > 45 µM
  Emax: 32.8%
[3]
  IC50: > 45 µM
  Emax: 0%
[6]; DMSO (text: also formulations containing 10-20% DMSO and PEG)
  Solubility in DMSO: > 200 mg/mL
[6]; acetate buffer, pH 4.5, aqueous buffer
  solubility: ≥ 30 mg/mL
[7]; [9]
  AUC(0-inf): 2740 µg·h/mL
  C0: 441 µg/mL
  Cmax: 369 µg/mL
[7]; [10]
  AUC(0-t): 2360 µg·h/mL
  Tmax: 0.2 h
  Vd: 0.1 L/kg
  clearance: 0.2 mL/min/kg
  half-life: 8.5 h
[7]; rat 30 mg/kg, animal 1M001
  AUCINF: 2670 µg·h/mL
  AUClast: 2310 µg·h/mL
  C0: 383 µg/mL
  CL: 0.187 mL/min/kg
  Cmax: 327 µg/mL
  Vz: 0.133 L/kg
  t1/2: 8.2 h
[7]; rat 30 mg/kg, animal 1M002
  AUCINF: 2370 µg·h/mL
  AUClast: 2110 µg·h/mL
  C0: 370 µg/mL
  CL: 0.211 mL/min/kg
  Cmax: 336 µg/mL
  Vz: 0.144 L/kg
  t1/2: 7.9 h
[7]; rat 30 mg/kg, animal 1M003
  AUCINF: 3180 µg·h/mL
  AUClast: 2650 µg·h/mL
  C0: 571 µg/mL
  CL: 0.157 mL/min/kg
  Cmax: 443 µg/mL
  Vz: 0.127 L/kg
  t1/2: 9.3 h
[4]
  IC50: > 45 µM
  Emax: 10.7%
[8]; [11]
  Brain concentration: 985 ng/g
  Colon concentration: 6100 ng/g
  Kidneys concentration: 11600 ng/g
  Liver concentration: 4430 ng/g
  Mammary concentration: 21700 ng/g
  Ovaries concentration: 27800 ng/g
  Plasma Concentration: 192 µg/mL
[8]; [12]
  Brain concentration: 968 ng/g
  Colon concentration: 6010 ng/g
  Kidneys concentration: 11500 ng/g
  Liver concentration: 4000 ng/g
  Lungs concentration: 32400 ng/g
  Mammary concentration: 18900 ng/g
  Ovaries concentration: 25700 ng/g
  Plasma Concentration: 168 µg/mL
[8]; [13]
  Brain concentration: 756 ng/g
  Colon concentration: 4370 ng/g
  Kidneys concentration: 9960 ng/g
  Liver concentration: 3250 ng/g
  Lungs concentration: 36100 ng/g
  Mammary concentration: 14800 ng/g
  Ovaries concentration: 20800 ng/g
  Plasma Concentration: 160 µg/mL
[8]; [14]
  Brain concentration: 974 ng/g
  Colon concentration: 2940 ng/g
  Kidneys concentration: 12200 ng/g
  Liver concentration: 4440 ng/g
  Lungs concentration: 41500 ng/g
  Mammary concentration: 12200 ng/g
  Ovaries concentration: 18700 ng/g
  Plasma Concentration: 117 µg/mL
[8]; [15]
  Brain concentration: 617 ng/g
  Colon concentration: 2460 ng/g
  Kidneys concentration: 8480 ng/g
  Liver concentration: 2430 ng/g
  Lungs concentration: 31300 ng/g
  Mammary concentration: 8100 ng/g
  Ovaries concentration: 14700 ng/g
  Plasma Concentration: 106 µg/mL
[8]; [16]
  Brain concentration: 406 ng/g
  Colon concentration: 2190 ng/g
  Kidneys concentration: 6640 ng/g
  Liver concentration: 2230 ng/g
  Lungs concentration: 16000 ng/g
  Mammary concentration: 5390 ng/g
  Ovaries concentration: 8870 ng/g
  Plasma Concentration: 77 µg/mL
[8]; [17]
  tissue level at time at 3 h: 903 ng/g
  tissue level at time at 8 h: 666 ng/g
[8]; [18]
  tissue level at time at 3 h: 18500 ng/g
  tissue level at time at 8 h: 8560 ng/g
[8]; [19]
  tissue level at time at 3 h: 5490 ng/g
  tissue level at time at 8 h: 2530 ng/g
[8]; [20]
  tissue level at time at 3 h: 11000 ng/g
  tissue level at time at 8 h: 9110 ng/g
[8]; [21]
  tissue level at time at 3 h: 11000 ng/g
  tissue level at time at 8 h: 9110 ng/g
[8]; [22]
  tissue level at time at 3 h: 3890 ng/g
  tissue level at time at 8 h: 3030 ng/g
[8]; [23]
  tissue level at time at 3 h: 57200 ng/g
  tissue level at time at 8 h: 29600 ng/g
[8]; [24]
  tissue level at time at 3 h: 24800 ng/g
  tissue level at time at 8 h: 14100 ng/g
[8]; [25]
  level at 3 h: 173 µg/mL
  level at 8 h: 100 µg/mL
[5]
  IC50: > 45 µM
  Emax: 35.1%
